Data published in patent EP0366226A1, “Stabilized thiocarbonate solutions and the use thereof for controlling soil pests” (UNION OIL COMPANY OF CALIFORNIA, priority 1988, dated 1990).

Experiments:
Fusarium oxysporum = experiment: Fungicidal test, radial growth of mycelia from treated agar blocks; type: cell-based; conditions: listed as Na₂CS₄ (10.6%CS₂)
Experimental: (§1) Thiocarbonate solutions were used in a test of their fungicidal properties. Cultures of four plant pathogenic fungi were grown upon potato dextrose agar at room temperature, in diffuse natural lighting. After one week, square blocks having 2 millimeter sides were cut from the edges of actively drawings mycelia spots on the agar.
(§2) The blocks were immersed in sterile deionized water, as a control, or in dilutions of thiocarbonate solutions using the sterile water, in a closed container. Subsequently, the blocks were removed and placed upon agar in clean plates, and mycelia were allowed to grow for one week.
(§3) Radial growth of mycelia colonies was measured for each of the six to eight replicate plates used for a particular fungus, and average colony radius was calculated. Percent control is defined by the following equation: […]
(§4) Concentrations given for solutions used to treat the agar blocks are expressed in grams of thiocarbonate solution per liter of diluted solution.

Phytophthora cinnamomi = experiment: as above; type: cell-based; conditions: 10 g/l; listed as Na₂CS₄ (10.6%CS₂)
Experimental: as §1, §2, §3, §4

Sclerotium rolfsii = experiment: as above; type: cell-based; conditions: 10 g/l; listed as Na₂CS₄ (10.6%CS₂)
Experimental: as §1, §2, §3, §4

Verticillium dahliae = experiment: as above; type: cell-based; conditions: 1 g/l; listed as Na₂CS₄ (10.6%CS₂)
Experimental: as §1, §2, §3, §4

[1] = CS2 in equilibrium vapor phase over concentrated thiocarbonate solutions (gas chromatography); type: physicochemical; conditions: for equilibrium CS₂ concentration in the vapor phase: 24° C., stoichiometric aqueous solution, 12.9 weight percent equivalent carbon disulfide
Experimental: Accordingly, the amount of base, sulfide and/or polysulfide employed should be sufficient to reduce the carbon disulfide partial pressure of the solution by the desired amount, and the amount of additive required to achieve that effect can be easily determined by adding different, known quantities of base, sulfide and/or polysulfide to the desired thiocarbonate solution, confining the vapor space over the solution at 24° C. for a sufficient period of time, e.g. about 24 hours, and analyzing, the vapor phase by gas chromotography for carbon disulfide. Lower additive concentrations will result in somewhat higher CS₂ equilibrium concentrations (e.g. higher CS₂ partial pressures), and higher additive concentrations will result in lower CS₂ partial pressures.
A series of solutions containing 12.9 weight percent equivalent carbon disulfide as sodium tri- or tetrathiocarbonate were prepared by combining sodium hydroxide, deionized water, sulfur (in the case of tetrathiocarbonate only), hydrogen sulfide and carbon disulfide. In the stoichiometric solutions, the reactants were combined in proportions sufficient to provide sodium tri- or tetrathiocarbonate solutions containing 12.9 weight percent equivalent carbon disulfide without any excess reactant. In addition to the stoichiometric solutions, solutions were prepared with systematically increasing sodium hydroxide concentrations at constant equivalent carbon disulfide concentrations, so that excess base was provided in those solutions in the proportions given in the following table.
The respective solutions were prepared by combining the appropriate amounts of base, water, and elemental sulfur (when used to form the tetrathiocarbonate), in 250 ml. bottles. The contents were then tared, and the appropriate amounts of hydrogen sulfide gas were bubbled in with cooling as necessary to form 100 grams of each of the test solutions. The bottles were then capped with Mininert valves, and the appropriate amount of carbon disulfide was added by injecting with a syringe. All sample bottles were shaken overnight to complete the reaction and were then allowed to equilibrate 3 days at 24° C., and the vapor phase was then sampled and analyzed for carbon disulfide by gas chromotography. The results are reported in the following table and show the effects of increasing base concentrations on carbon disulfide partial pressure (carbon disulfide content of the equilibrium vapor phase). Hydrogen sulfide was not detected in the vapor phase of these formulations at an H₂S detection limit of 100 ppmv.
The operation described in Example 19 was repeated with the exception that sodium sulfide (Na₂S) was substituted for excess base. The sodium sulfide was introduced by forming solutions containing incrementally greater amounts of sodium hydroxide and then adding additional amounts of hydrogen sulfide equivalent to the amount of excess sodium hydroxide to convert the excess sodium hydroxide to sodium sulfide in situ.

[2] = Accelerated ageing at 84° C.: effect of additives on thiocarbonate half-life; type: physicochemical; conditions: parentheses = decrease
Experimental: The effect of elemental sulfur additions and the addition of free radical scavengers on the half-life of thiocarbonate solutions was determined by an accelerated adding procedure in which the compositions were stored at 84° C. in order to accelerate decomposition and thereby facilitate data acquisition. Incremental additions of 1.0, 3.0 and 5.0 weight percent elemental sulfur were made, and these corresponds to 0.16, 0.48 and 0.86 equivalents of sulfur per equivalent of ammonium sulfide, respectively. Since the solutions contained 1 equivalent of ammonium sulfide per equivalent of ammonium tetrathiocarbonate (based on the weight percent values for those components given above), the amount of ammonium polysulfide in the solution correspond, nominally, to 0.16, 0.48 and 0.86 equivalents polysulfide per equivalent of thiocarbonate for the 3 sulfur concentrations employed.

[3] = Base 0.00 equivalent per equivalent of CS2, sodium salt, 12.9 weight percent equivalent CS2
[4] = Base 0.02 equivalent per equivalent of CS2
[5] = Base 0.04 equivalent per equivalent of CS2
[6] = Base 0.08 equivalent per equivalent of CS2
[7] = Base 0.12 equivalent per equivalent of CS2
[8] = Sulfide 0.02 equivalent per equivalent of CS2
[9] = Sulfide 0.04 equivalent per equivalent of CS2
[10] = Sulfide 0.08 equivalent per equivalent of CS2
[11] = Sulfide 0.12 equivalent per equivalent of CS2
[12] = Sulfide (Na2S) 0.00 equivalent per equivalent of CS2, sodium salt, 12.9 weight percent equivalent CS2
[13] = additive Concentration 1.0 Wt. %
[14] = additive Concentration 5.0 Wt. %

Row | Compound | equilibrium CS₂ concentration in the vapor phase [1] | CS₂ in Equilibrium Vapor at 24° C., Vol. % [1, 3] | CS₂ in Equilibrium Vapor at 24° C., Vol. % [1, 4] | CS₂ in Equilibrium Vapor at 24° C., Vol. % [1, 5] | CS₂ in Equilibrium Vapor at 24° C., Vol. % [1, 6] | CS₂ in Equilibrium Vapor at 24° C., Vol. % [1, 7] | CS₂ in Equilibrium Vapor at 24° C., Vol. % [1, 8] | CS₂ in Equilibrium Vapor at 24° C., Vol. % [1, 9] | CS₂ in Equilibrium Vapor at 24° C., Vol. % [1, 10] | CS₂ in Equilibrium Vapor at 24° C., Vol. % [1, 11] | CS₂ in Equilibrium Vapor at 24° C., Vol. % [1, 12] | Increase (Decrease) in Half-Life, % [2, 13] | Increase (Decrease) in Half-Life, % [2, 14] | other results
1 | S=C(S)SS [Na₂CS₄, sodium tetrathiocarbonate] | approximately 14 volume percent | 14.4 Vol. % | 0.87 Vol. % | 0.47 Vol. % | 0.29 Vol. % | 0.27 Vol. % | 6.60 Vol. % | 0.74 Vol. % | 0.12 Vol. % | 0.13 Vol. % | 14.4 Vol. % |  |  | Percent Control Fusarium oxysporum (Fusarium oxysporum; 1 g/l): 4%; Percent Control Fusarium oxysporum (Fusarium oxysporum; 10 g/l): 6%; Percent Control Fusarium oxysporum (Fusarium oxysporum; 100 g/l thiocarbonate solution per liter of diluted solution): 100%; Percent Control Phytophthora cinnamomi (Phytophthora cinnamomi): 37%; Percent Control Sclerotium rolfsii (Sclerotium rolfsii): 100%; Percent Control Verticillium dahliae (Verticillium dahliae): 23%
2 | CCN(CC)CC [Triethylamine] |  |  |  |  |  |  |  |  |  |  |  | 0% |  | 
3 | S=C(S)S [Trithiocarbonate, sodium trithiocarbonate] | 27 volume percent | 27.5 Vol. % | 34.2 Vol. % | 30.0 Vol. % | 0.67 Vol. % | 0.16 Vol. % | 45.9 Vol. % | 1.39 Vol. % | 0.57 Vol. % | 0.42 Vol. % | 27.5 Vol. % |  |  | 
4 | NC(N)=O [Urea] |  |  |  |  |  |  |  |  |  |  |  |  | 0% | 
5 | COc1ccc(O)cc1 [p-Methoxyphenol] |  |  |  |  |  |  |  |  |  |  |  | 0% |  | Increase (Decrease) in Half-Life, % ([2]; additive Concentration 0.5 Wt. %): 0%; Increase (Decrease) in Half-Life, % ([2]; additive Concentration 2.0 Wt. %): 0%
6 | Elemental Sulfur |  |  |  |  |  |  |  |  |  |  |  | 0% | 22% | Increase (Decrease) in Half-Life, % ([2]; additive Concentration 3.0 Wt. %): 16%
